Experimental data taken from ChEMBL document CHEMBL4330071 (Eur J Med Chem, 2019).

Columns and labels:
[1] = system: HuT78; experiment: Growth inhibition of human HUT78 cells at 10 uM after 72 hrs by CellTiter-Glo assay relative to control; assay type: functional; details: HuT78, 72 h, read-out: GI
[2] = biological target: T1, Macrophage colony-stimulating factor 1 receptor (Homo sapiens, UniProt P07333); experiment: Binding affinity to wild-type human partial length autoinhibited CSF1R (Y538 to S939 residues) expressed in mammalian expression system after 60 mins by Kinomescan method
T1 sequence (P07333 whole entry, the tested form may be a part): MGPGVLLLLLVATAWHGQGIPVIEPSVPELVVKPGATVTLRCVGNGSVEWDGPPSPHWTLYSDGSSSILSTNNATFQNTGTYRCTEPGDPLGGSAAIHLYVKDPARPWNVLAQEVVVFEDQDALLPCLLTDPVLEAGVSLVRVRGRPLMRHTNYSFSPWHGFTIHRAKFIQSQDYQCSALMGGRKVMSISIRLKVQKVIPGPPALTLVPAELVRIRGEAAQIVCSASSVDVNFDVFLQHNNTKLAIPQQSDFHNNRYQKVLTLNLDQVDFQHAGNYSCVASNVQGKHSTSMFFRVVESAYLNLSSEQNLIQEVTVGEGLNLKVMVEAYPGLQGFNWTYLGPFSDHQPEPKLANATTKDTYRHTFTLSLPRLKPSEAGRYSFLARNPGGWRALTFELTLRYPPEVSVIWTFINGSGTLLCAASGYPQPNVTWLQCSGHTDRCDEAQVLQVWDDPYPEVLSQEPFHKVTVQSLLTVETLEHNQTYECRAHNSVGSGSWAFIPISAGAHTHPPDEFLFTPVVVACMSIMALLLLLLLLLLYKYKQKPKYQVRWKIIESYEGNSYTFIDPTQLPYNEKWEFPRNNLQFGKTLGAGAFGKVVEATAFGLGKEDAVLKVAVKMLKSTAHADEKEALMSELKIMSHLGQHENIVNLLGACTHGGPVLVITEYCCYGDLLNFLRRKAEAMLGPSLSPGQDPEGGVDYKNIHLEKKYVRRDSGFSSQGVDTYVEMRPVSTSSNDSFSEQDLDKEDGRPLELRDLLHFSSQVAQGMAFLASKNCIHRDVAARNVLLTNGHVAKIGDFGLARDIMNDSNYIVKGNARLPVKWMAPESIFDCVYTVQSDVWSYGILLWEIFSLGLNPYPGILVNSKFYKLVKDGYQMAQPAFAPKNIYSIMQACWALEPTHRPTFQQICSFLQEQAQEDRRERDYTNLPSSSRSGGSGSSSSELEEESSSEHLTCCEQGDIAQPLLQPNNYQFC

[3] = biological target: Hepatocyte growth factor receptor (Homo sapiens) (UniProt P08581); experiment: Inhibition of human c-MET assessed as residual activity at 10 uM using KKKSPGEYVNIEFG as substrate preincubated for 20 mins followed by [gamma-33P]-ATP addition and measured after 120 mins by Hotspot assay relative to control
[4] = biological target: Cyclin-dependent kinase 7/ cyclin H (Homo sapiens) (UniProt P51946+P50613); experiment: Inhibition of human CDK7/cyclin-H assessed as residual activity at 10 uM using MBP as substrate preincubated for 20 mins followed by [gamma-33P]-ATP addition and measured after 120 mins by Hotspot assay relative to control; assay type: protein-complex assay
[5] = biological target: Tyrosine-protein kinase ABL1 (Homo sapiens, UniProt P00519, Q252H); experiment: Binding affinity to human phosphorylated ABL1 Q252H mutant expressed in mammalian expression system after 60 mins by Kinomescan method
[6] = system: MV4-11; experiment: Induction of apoptosis in human MV4-11 cells assessed as late apoptotic cells at 1 uM after 24 hrs by Annexin V-FITC/propidium iodide staining based flow cytometric analysis (reference value: 1.42%); assay type: functional
[7] = biological target: T1, Macrophage colony-stimulating factor 1 receptor; experiment: Binding affinity to wild-type human partial length CSF1R (I564 to S939 residues) expressed in bacterial expression system after 60 mins by Kinomescan method
[8] = biological target: Proto-oncogene tyrosine-protein kinase Src (Homo sapiens, UniProt P12931); experiment: Inhibition of human c-SRC using poly[Glu:Tyr] (4:1) as substrate preincubated for 20 mins followed by [gamma-33P]-ATP addition and measured after 120 mins by Hotspot assay
Chain of Proto-oncogene tyrosine-protein kinase Src (P12931 2-536 limits assumed): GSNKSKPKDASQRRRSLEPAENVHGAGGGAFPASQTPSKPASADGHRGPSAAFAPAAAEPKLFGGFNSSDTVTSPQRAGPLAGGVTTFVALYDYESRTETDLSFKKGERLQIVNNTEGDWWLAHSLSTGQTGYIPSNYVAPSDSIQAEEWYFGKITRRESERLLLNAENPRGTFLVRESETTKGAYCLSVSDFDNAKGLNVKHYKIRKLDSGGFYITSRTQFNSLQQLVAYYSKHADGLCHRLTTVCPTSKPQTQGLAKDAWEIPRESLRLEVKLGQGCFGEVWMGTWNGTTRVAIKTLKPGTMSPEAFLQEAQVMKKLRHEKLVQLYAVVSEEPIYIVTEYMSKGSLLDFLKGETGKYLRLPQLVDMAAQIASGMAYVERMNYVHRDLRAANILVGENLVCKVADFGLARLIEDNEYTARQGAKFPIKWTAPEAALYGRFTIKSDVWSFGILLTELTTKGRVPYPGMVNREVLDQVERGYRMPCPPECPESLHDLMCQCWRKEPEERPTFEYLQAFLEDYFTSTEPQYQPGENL

[9] = system: MV4-11; experiment: Induction of apoptosis in human MV4-11 cells assessed as late apoptotic cells at 0.2 uM after 24 hrs by Annexin V-FITC/propidium iodide staining based flow cytometric analysis (reference value: 1.42%); assay type: functional
[10] = biological target: Glycogen synthase kinase-3 beta (Homo sapiens) (UniProt P49841); experiment: Inhibition of human GSK3B assessed as residual activity at 10 uM using YRRAAVPPSPSLSRHSSPHQ(pS)EDEEE as substrate preincubated for 20 mins followed by [gamma-33P]-ATP addition and measured after 120 mins by Hotspot assay relative to control
[11] = biological target: Mitogen-activated protein kinase 14 (Homo sapiens) (UniProt Q16539); experiment: Inhibition of human p38alpha assessed as residual activity at 10 uM using MBP as substrate preincubated for 20 mins followed by [gamma-33P]-ATP addition and measured after 120 mins by Hotspot assay relative to control
Chain of Mitogen-activated protein kinase 14 (Homo sapiens) (Q16539 whole entry): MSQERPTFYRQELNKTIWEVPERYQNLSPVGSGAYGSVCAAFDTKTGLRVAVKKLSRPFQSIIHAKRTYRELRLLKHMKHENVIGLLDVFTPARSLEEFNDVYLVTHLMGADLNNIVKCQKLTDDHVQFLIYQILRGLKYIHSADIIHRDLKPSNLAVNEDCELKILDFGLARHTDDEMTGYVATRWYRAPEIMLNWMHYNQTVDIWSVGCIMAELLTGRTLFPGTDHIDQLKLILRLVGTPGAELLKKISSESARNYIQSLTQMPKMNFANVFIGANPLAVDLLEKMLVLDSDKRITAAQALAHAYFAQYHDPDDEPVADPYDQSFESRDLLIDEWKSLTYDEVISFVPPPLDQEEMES

[12] = biological target: Cyclin-dependent kinase 4/cyclin D1 (Homo sapiens) (UniProt P11802+P24385); experiment: Inhibition of human CDK4/cyclin-D1 assessed as residual activity at 10 uM using RB protein as substrate preincubated for 20 mins followed by [gamma-33P]-ATP addition and measured after 120 mins by Hotspot assay relative to control; assay type: protein-complex assay
[13] = biological target: Mitogen-activated protein kinase kinase kinase 1 (Homo sapiens) (UniProt Q13233); experiment: Inhibition of human MEKK1 assessed as residual activity at 10 uM using MBP as substrate preincubated for 20 mins followed by [gamma-33P]-ATP addition and measured after 120 mins by Hotspot assay relative to control
Chain of Mitogen-activated protein kinase kinase kinase 1 (Homo sapiens) (Q13233 whole entry): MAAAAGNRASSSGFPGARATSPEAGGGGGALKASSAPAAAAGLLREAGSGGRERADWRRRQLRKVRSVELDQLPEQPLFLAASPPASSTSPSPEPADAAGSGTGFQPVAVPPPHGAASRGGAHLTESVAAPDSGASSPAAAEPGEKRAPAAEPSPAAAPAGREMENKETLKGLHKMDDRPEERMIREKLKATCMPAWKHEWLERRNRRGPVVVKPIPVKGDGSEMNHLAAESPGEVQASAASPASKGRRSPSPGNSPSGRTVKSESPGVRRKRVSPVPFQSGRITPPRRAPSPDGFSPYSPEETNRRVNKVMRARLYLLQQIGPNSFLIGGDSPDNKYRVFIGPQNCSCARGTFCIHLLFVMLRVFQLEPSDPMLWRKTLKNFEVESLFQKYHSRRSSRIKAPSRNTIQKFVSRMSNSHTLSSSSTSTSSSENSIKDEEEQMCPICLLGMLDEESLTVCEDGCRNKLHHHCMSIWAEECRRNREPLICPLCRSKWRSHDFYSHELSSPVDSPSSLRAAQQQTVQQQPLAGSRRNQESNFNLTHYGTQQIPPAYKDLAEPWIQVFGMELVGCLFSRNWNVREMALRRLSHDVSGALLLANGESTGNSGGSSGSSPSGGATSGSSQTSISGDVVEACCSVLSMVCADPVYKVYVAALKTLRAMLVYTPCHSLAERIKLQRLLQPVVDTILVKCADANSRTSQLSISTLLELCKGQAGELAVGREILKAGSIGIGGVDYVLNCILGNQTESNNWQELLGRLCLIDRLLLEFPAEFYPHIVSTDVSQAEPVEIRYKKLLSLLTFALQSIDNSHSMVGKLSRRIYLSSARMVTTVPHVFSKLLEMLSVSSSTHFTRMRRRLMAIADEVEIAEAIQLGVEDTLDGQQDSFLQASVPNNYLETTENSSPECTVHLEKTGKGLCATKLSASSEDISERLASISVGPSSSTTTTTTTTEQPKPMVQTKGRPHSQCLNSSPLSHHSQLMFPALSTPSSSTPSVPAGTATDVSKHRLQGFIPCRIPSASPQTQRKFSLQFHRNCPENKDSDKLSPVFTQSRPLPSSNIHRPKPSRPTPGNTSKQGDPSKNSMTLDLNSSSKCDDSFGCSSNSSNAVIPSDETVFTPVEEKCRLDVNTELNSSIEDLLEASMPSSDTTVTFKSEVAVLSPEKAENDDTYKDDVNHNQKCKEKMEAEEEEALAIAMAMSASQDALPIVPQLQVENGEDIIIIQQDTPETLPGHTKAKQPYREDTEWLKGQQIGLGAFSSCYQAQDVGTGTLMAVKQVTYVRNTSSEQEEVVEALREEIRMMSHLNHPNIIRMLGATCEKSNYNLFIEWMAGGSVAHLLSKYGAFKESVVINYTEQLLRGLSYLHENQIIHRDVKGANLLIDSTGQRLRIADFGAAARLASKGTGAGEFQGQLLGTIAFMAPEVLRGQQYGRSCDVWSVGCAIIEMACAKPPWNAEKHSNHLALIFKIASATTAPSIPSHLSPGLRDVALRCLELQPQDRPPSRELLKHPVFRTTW

[14] = system: MV4-11; experiment: Induction of apoptosis in human MV4-11 cells assessed as early apoptotic cells at 1 uM after 24 hrs by Annexin V-FITC/propidium iodide staining based flow cytometric analysis (reference value: 3.39%); assay type: functional
[15] = system: MV4-11; experiment: Induction of apoptosis in human MV4-11 cells assessed as necrotic cells at 0.2 uM after 24 hrs by Annexin V-FITC/propidium iodide staining based flow cytometric analysis (reference value: 0%); assay type: functional
[16] = biological target: Serine/threonine-protein kinase B-raf (Homo sapiens) (UniProt P15056); experiment: Inhibition of human BRAF assessed as residual activity at 10 uM using MEK1 (K97R) as substrate preincubated for 20 mins followed by [gamma-33P]-ATP addition and measured after 120 mins by Hotspot assay relative to control
Chain of Serine/threonine-protein kinase B-raf (Homo sapiens) (P15056 whole entry, the tested form may be a part): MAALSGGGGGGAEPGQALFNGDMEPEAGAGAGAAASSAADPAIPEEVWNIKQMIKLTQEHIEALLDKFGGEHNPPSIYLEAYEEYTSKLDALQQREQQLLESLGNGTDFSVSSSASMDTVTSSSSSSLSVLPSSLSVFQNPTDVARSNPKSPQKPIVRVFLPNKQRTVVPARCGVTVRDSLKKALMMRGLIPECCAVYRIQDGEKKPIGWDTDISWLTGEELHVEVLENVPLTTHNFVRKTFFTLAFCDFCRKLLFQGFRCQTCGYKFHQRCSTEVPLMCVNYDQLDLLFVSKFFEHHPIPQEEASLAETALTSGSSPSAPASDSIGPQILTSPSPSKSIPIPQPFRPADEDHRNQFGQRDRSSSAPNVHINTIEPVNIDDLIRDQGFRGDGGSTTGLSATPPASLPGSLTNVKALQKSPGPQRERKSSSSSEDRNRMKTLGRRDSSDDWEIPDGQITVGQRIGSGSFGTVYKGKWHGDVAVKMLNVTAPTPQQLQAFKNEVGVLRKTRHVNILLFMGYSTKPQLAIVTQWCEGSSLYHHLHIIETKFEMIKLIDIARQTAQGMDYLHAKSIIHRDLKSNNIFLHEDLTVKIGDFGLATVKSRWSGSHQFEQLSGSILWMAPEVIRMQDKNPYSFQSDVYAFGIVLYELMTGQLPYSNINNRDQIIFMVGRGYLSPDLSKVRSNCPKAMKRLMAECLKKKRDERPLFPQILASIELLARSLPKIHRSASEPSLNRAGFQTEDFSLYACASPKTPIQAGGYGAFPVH

[17] = biological target: Discoidin domain-containing receptor 2 (Homo sapiens, UniProt Q16832); experiment: Inhibition of human DDR2 using KKSRGDYMTMQIG as substrate preincubated for 20 mins followed by [gamma-33P]-ATP addition and measured after 120 mins by Hotspot assay
[18] = system: HL-60; experiment: Growth inhibition of human HL60 cells harboring WT FLT3 at 10 uM after 72 hrs by CellTiter-Glo assay relative to control; assay type: functional; details: HL-60, 72 h, read-out: GI
[19] = biological target: Tyrosine-protein kinase BTK (Homo sapiens, UniProt Q06187); experiment: Inhibition of human BTK assessed as residual activity at 10 uM using KVEKIGEGTYGVVYK as substrate preincubated for 20 mins followed by [gamma-33P]-ATP addition and measured after 120 mins by Hotspot assay relative to control
Chain of Tyrosine-protein kinase BTK (Q06187 whole entry): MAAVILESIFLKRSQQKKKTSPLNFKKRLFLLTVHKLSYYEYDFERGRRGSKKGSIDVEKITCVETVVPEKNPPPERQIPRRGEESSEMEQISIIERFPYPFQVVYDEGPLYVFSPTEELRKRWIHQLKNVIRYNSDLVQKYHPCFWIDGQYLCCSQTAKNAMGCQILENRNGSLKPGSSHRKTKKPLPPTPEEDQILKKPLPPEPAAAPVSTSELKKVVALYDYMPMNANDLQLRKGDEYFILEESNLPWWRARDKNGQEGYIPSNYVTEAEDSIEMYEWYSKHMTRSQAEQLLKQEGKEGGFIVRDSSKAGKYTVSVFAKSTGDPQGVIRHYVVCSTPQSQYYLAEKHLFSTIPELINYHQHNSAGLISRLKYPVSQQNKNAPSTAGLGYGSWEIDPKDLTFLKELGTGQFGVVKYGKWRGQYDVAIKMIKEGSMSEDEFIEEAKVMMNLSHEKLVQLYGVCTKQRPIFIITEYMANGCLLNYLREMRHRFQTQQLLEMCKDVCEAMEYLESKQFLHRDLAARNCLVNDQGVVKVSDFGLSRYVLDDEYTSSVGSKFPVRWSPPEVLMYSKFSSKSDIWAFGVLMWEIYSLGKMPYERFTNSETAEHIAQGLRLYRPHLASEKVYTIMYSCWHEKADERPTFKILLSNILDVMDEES

[20] = system: MV4-11; experiment: Cytotoxicity against human MV4-11 cells at 1 uM after 72 hrs by MTT assay; assay type: cell-based; details: mv4-11, 72 h
[21] = system: MV4-11; experiment: Induction of apoptosis in human MV4-11 cells assessed as necrotic cells at 0.5 uM after 24 hrs by Annexin V-FITC/propidium iodide staining based flow cytometric analysis (reference value: 0%); assay type: functional
[22] = system: MV4-11; experiment: Induction of apoptosis in human MV4-11 cells assessed as early apoptotic cells at 0.5 uM after 24 hrs by Annexin V-FITC/propidium iodide staining based flow cytometric analysis (reference value: 3.39%); assay type: functional
[23] = system: MCF7; experiment: Growth inhibition of human MCF7 cells at 10 uM after 72 hrs by CellTiter-Glo assay relative to control; assay type: functional; details: MCF7, 72 h, read-out: GI
[24] = system: MV4-11; experiment: Induction of apoptosis in human MV4-11 cells assessed as early apoptotic cells at 0.05 uM after 24 hrs by Annexin V-FITC/propidium iodide staining based flow cytometric analysis (reference value: 3.39%); assay type: functional
[25] = Half life in rat liver microsomes at 1 uM after 5 to 60 mins in presence of NADPH by LC-MS/MS analysis; assay type: ADME, Microsome
[26] = system: MV4-11; experiment: Induction of apoptosis in human MV4-11 cells assessed as viable cells at 0.5 uM after 24 hrs by Annexin V-FITC/propidium iodide staining based flow cytometric analysis (reference value: 95.19%); assay type: functional; details: MV4-11, 24 h, read-out: Activity
[27] = biological target: Platelet-derived growth factor receptor alpha (Homo sapiens, UniProt P16234); experiment: Inhibition of human PDGFRalpha using poly[Glu:Tyr] (4:1) as substrate preincubated for 20 mins followed by [gamma-33P]-ATP addition and measured after 120 mins by Hotspot assay
[28] = biological target: Tyrosine-protein kinase ABL1 (Homo sapiens, UniProt P00519); experiment: Binding affinity to wild-type human phosphorylated ABL1 (S229 to K512 residues) expressed in mammalian expression system after 60 mins by Kinomescan method

Question: Which results are given for `CN1CCC(Nc2ccc(C(=O)Nc3cc(-c4cc(C#N)cs4)n[nH]3)cc2)CC1`?
Answer: inhibition of growth at 10 µM [1]: 3.9%; Kd [2]: 84 nM; Activity [3]: 74.5%; Activity [4]: 27.1%; Kd [5]: 300 nM; Activity [6]: 27.75%; Kd [7]: 47 nM; IC50 [8]: 2400 nM; Activity [9]: 21.77%; Activity [10]: 72.8%; Activity [11]: 98.4%; Activity [12]: 49.2%; Activity [13]: 66.2%; Activity [14]: 31.43%; Activity [15]: 4.1%; Activity [16]: 67.7%; IC50 [17]: 3.47 µM; inhibition of growth at 10 µM [18]: 10.2%; Activity [19]: 12.9%; Activity [20]: Non-Toxic; Activity [21]: 4.89%; Activity [22]: 28.65%; inhibition of growth at 10 µM [23]: 0.83%; Activity [24]: 21.04%; half-life at 1 µM [25]: 8.1 min; viability at 0.5 µM [26]: 39.8%; IC50 [27]: 3.64 µM; Kd [28]: 520 nM
